ChEMBL document CHEMBL3856270, “Structure-activity relationship of cyclic pentapeptide malformins as fibrinolysis enhancers” (Bioorg Med Chem Lett, 2016)
The source made the active and inactive calls. The calls are words filed in the database; no cut-off is given here.

Columns and labels:
U-937 [1] = assay: Pro-fibrinolytic activity in human U937 cells supplemented with human platelet-poor plasma assessed as [125I]-fibrin degradation up to 5 uM after 3 hrs by gamma counting method; assay type: functional, cell-based
[2] = Cytotoxicity against human U937 cells assessed as reduction in cell viability after 24 hrs by MTT assay; assay type: toxicity, cell-based, U-937; conditions: for IC50 at 24 h: human, U937 cells
U-937 [3] = assay: Pro-fibrinolytic activity in human U937 cells supplemented with human platelet-poor plasma assessed as [125I]-fibrin degradation at >20 uM after 3 hrs by gamma counting method; assay type: functional, cell-based
U-937 [4] = assay: Pro-fibrinolytic activity in human U937 cells supplemented with human platelet-poor plasma assessed as [125I]-fibrin degradation after 3 hrs by gamma counting method; assay type: functional, cell-based

Structure (SMILES)	Activity (U-937 [1])	IC50 at 24 h [2] [nM]	other results
CC[C@H](C)[C@@H]1NC(=O)[C@@H](C)NC(=O)[C@H](C(C)C)NC(=O)[C@H]2CSSC[C@@H](NC1=O)C(=O)N2	Active	2200	–
CC(C)C[C@H]1NC(=O)[C@H](C(C)C)NC(=O)[C@H]2CSSC[C@@H](NC(=O)[C@H](CCCCNC(=O)OC(C)(C)C)NC1=O)C(=O)N2	Active	< 100	–
CC[C@H](C)[C@H](N)C(=O)N[C@@H]1CSSC[C@H](C(=O)N[C@H](C(=O)N[C@H](CC(C)C)C(=O)O)C(C)C)NC1=O	–	> 5000	–
CC[C@H](C)[C@@H]1NC(=O)[C@@H](CC(C)C)NC(=O)[C@H](C(C)C)NC(=O)[C@@H](CSC(c2ccccc2)(c2ccccc2)c2ccccc2)NC(=O)[C@@H](CSC(c2ccccc2)(c2ccccc2)c2ccccc2)NC1=O	–	> 5000	–
CC[C@H](C)[C@@H]1NC(=O)[C@@H](Cc2ccccc2)NC(=O)[C@H](C(C)C)NC(=O)[C@H]2CSSC[C@@H](NC1=O)C(=O)N2	Active	1300	–
CC[C@H](C)[C@@H]1NC(=O)[C@@H](CC(C)C)NC(=O)[C@H](CCCCNC(=O)OC(C)(C)C)NC(=O)[C@H]2CSSC[C@@H](NC1=O)C(=O)N2	Active	< 100	–
CC[C@H](C)[C@@H]1NC(=O)[C@@H](CC(C)C)NC(=O)[C@H](C(C)C)NC(=O)[C@H]2CSSC[C@@H](NC1=O)C(=O)N2 (stereo in doubt; form 1) [listing 1 of 2 here]	–	–	IC50 ([2]; u-937): 800 nM
CC[C@H](C)[C@@H]1NC(=O)[C@@H](CC(C)C)NC(=O)[C@H](C(C)C)NC(=O)[C@H]2CSSC[C@@H](NC1=O)C(=O)N2 (stereo in doubt; form 2) [listing 1 of 2 here]	–	760	–
CC[C@H](C)[C@@H]1NC(=O)[C@@H](CCCCNC(=O)OC(C)(C)C)NC(=O)[C@H](C(C)C)NC(=O)[C@H]2CSSC[C@@H](NC1=O)C(=O)N2	Active	200	–
N[C@@H]1CSSC[C@H](C(=O)O)NC1=O	–	> 5000	–
CC(C)C[C@H]1NC(=O)[C@H](C(C)C)NC(=O)[C@H]2CSSC[C@@H](NC(=O)[C@H](Cc3ccccc3)NC1=O)C(=O)N2	Active	< 100	–
CC[C@H](C)[C@@H]1NC(=O)[C@@H](CCCCN)NC(=O)[C@H](C(C)C)NC(=O)[C@H]2CSSC[C@@H](NC1=O)C(=O)N2	–	> 5000	–
CC[C@H](C)[C@@H]1NC(=O)[C@@H](CC(C)C)NC(=O)[C@H](CCCCN)NC(=O)[C@H]2CSSC[C@@H](NC1=O)C(=O)N2	–	> 5000	–
CC[C@H](C)[C@@H]1NC(=O)[C@@H](CC(C)C)NC(=O)[C@H](C)NC(=O)[C@H]2CSSC[C@@H](NC1=O)C(=O)N2	–	1400	–
CC(C)C[C@H]1NC(=O)[C@H](C(C)C)NC(=O)[C@H]2CSSC[C@@H](NC(=O)[C@H](CCCCN)NC1=O)C(=O)N2	–	> 5000	–
CC[C@H](C)[C@@H]1NC(=O)[C@@H](CC(C)C)NC(=O)[C@H](Cc2ccccc2)NC(=O)[C@H]2CSSC[C@@H](NC1=O)C(=O)N2	Active	< 100	–
CC(C)C[C@H]1NC(=O)[C@H](C(C)C)NC(=O)[C@H]2CSSC[C@@H](NC(=O)[C@H](C)NC1=O)C(=O)N2	Active	2800	–
CC[C@H](C)[C@@H]1NC(=O)[C@@H](CC(C)C)NC(=O)[C@H](C(C)C)NC(=O)[C@@H](CS)NC(=O)[C@@H](CS)NC1=O	–	> 5000	Activity (U-937 [3]): Active
CC[C@H](C)[C@@H]1NC(=O)[C@@H](CC(C)C)NC(=O)[C@H](C(C)C)NC(=O)[C@H]2CSSC[C@@H](NC1=O)C(=O)N2 (stereo in doubt; form 2) [listing 2 of 2 here]	–	–	Activity (U-937 [4]): Dose-dependent effect
CC[C@H](C)[C@@H]1NC(=O)[C@@H](CC(C)C)NC(=O)[C@H](C(C)C)NC(=O)[C@@H](CSC)NC(=O)[C@@H](CSC)NC1=O	–	> 5000	–
CC[C@H](C)[C@@H]1NC(=O)[C@@H](CC(C)C)NC(=O)[C@H](C(C)C)NC(=O)[C@H]2CSSC[C@@H](NC1=O)C(=O)N2 (stereo in doubt; form 1) [listing 2 of 2 here]	–	–	Activity (U-937 [4]): Dose-dependent effect
